Results: patent US6773702B2, “Use of combretastatin A4 and its prodrugs as an immune enhancing therapy” (OXiGENE, Inc., priority 2000, dated 2004)

Legend:
[1] = test system: BT4Cn tumor blood vessels; assay: Tumor vascular shut-down, open tumor blood vessels 24 h after CA4P (FIG. 2B); type: in vivo, rat
Method: FIG. 2B illustrates the percentage of open tumor blood vessels in an excised tumor 24 hours after administration of various doses of CA4P to a BT4Cn tumor bearing rat.
Results of in vitro studies indicate that the dose of Combretastatin A4 Prodrug that is administered is critical for obtaining a specific immunological effect. The specific immunomodulatory properties of CA4P are only observed at a low dosage, whereas higher doses fail to remove the immunosuppressive effects of the established tumor or induce suppression of lymphocyte activity. […] Proliferation of spleen immune cells was monitored by 3-H-thymidine incorporation (CPM) after 5 days incubation. […] An analysis of tumor pathology was performed on BT4Cn tumor-bearing rats when the tumor had growth to a size of 300 mm^3. Rats received single intraperitoneal injections of various doses of CA4P. Twenty-four hours later they were injected with 0.25 ml of Fluo-Spheres bead in the tail vein and sacrificed after 3 min. Tumors were removed and prepared for cryosection. Eight μm cryosections were examined directly in a fluorescence microscope and vessel volume was determined (Springer, MP., Ip, TK., and Blau, HM). Angiogenesis monitored by perfusion with space-filling microbead suspension (Mol. Ther. 1: 82-87, 2000). […] Thus in a preferred embodiment, the dose at which CA4P is administered to achieve a desired immune enhancing effect without vascular shutdown is less than 5 mg/kg.

[2] = test system: spleen cells isolated from BN7005-H1D2 tumor-bearing rats; assay: In vitro proliferation of spleen cells from vaccinated tumor-bearing rats treated in vivo with CA4P (FIG. 1); design: species or system rat; settings: CA4P 2 mg/kg 5 days a week + vaccination
[3] = test system: NO production by spleen cells of tumor-free immunized rats; assay: NO production by spleen cells (Griess technique) after in vitro preincubation with CA4P; type: cell-based, rat; settings: for Nitric oxide production into supernatant: unseparated spleen cells (L0), CA4-P 0.15 μg/ml preincubated 3 h
Method: One of the main suppressive molecules produced by macrophages is nitric oxide (NO) and direct assays of the generation of NO released into the medium of parallel spleen cell cultures (containing both adherent and nonadherent cells) after exposure to SEA and CA4P were performed as previously described (Hegardt et al, Cancer Immunol & Immunother (2001) 50: 491-501).
The proliferative response of 3×10^5 admixed non-adherent cells (e.g. T-cells) stimulated for 4 days with SEA (0.05 ng/ml) was estimated as in Example 1. […] This effect is interpreted as due to a decrease of the suppressive effect of the IL-12 and IL-18 activated macrophages on T cell responses. Direct assays of the generation of NO released into the medium of parallel […] spleen cell cultures after exposure to SEA and CA4P were performed as previously described (Hegardt et al, 2001).

[4] = test system: spleen cells of tumor-free rats immunized with BN7005-H1D2-IL-12 and IL-18 cells; assay: Proliferative T cell response (thymidine incorporation) after in vitro preincubation of spleen cells with CA4P; type: cell-based, rat
Description: Macrophages were isolated as plastic-adherent spleen cells from tumor-free rats vaccinated with IL-18 and IL-12 transfected tumor cells. […] This effect is interpreted as due to a decrease of the suppressive effect of IL-12 and IL-18 activated macrophages on T cell responses.
The observation of selective macrophage toxicity is further supported by the observation that CA4P treatment of unseparated spleen cells recapitulates this anti-tumor immune response. FIG. 3 illustrates the in vitro immune proliferative response of unseparated spleen cells isolated from tumor-free rats previously vaccinated with IL-18 and IL-12 transfected tumor cells. Spleen cells were stimulated with untransfected (H1D2-WT) tumor cells (FIG. 3A) or the superantigen SEA polyclonal activator (FIG. 3B) after preincubation with or without CA4P (0.15 μg/ml).
As described in Table 1, spleen cells were isolated from tumor-free BN×WF hybrid rats immunized twice (1 week between vaccinations) with BN7005-H1D2 tumor cells producing IL-18 and IL-12, respectively. Macrophages were isolated from the sample by allowing isolated spleen cells to adhere to the plastic surface of 96-well microtiter plates, at which point the non-adherent cells were removed.
(§1) The purified adherent cells (6×10^5/microtiter well) were treated in vitro for 3 hours with 0.15 ug/ml CA4P before washing. […] These variables were used to choose an in vitro concentration that is equal to the average concentration in vivo after a 3 hour period. For example, after treatment with 2 mg/kg in vivo, the concentration would be a maximum of 0.18 ug/ml 1.5 hours later, and less than 1 ng/ml after 3 hours.
The proliferative response of 3×10^5 admixed non-adherent cells (e.g. T-cells) stimulated for 4 days with SEA (0.05 ng/ml) was estimated as in Example 1. […] This effect is interpreted as due to a decrease of the suppressive effect of the IL-12 and IL-18 activated macrophages on T cell responses. […]

[5] = Half-life and estimated in vivo concentration of CA4P
Method: as §1

[6] = cited from earlier work
[7] = cited from earlier work; remark: listed apart in the source
[8] = test system: BN7005-H1D2 colon cancer cells; assay: Tumor growth with IL-18/IFN-γ vaccination plus CA4P and/or L-NAME (FIG. 6); type: in vivo, rat
Method: FIG. 6 illustrates enhancement of the therapeutic effect of vaccination with IL-18/IFN-γ producing tumor transfectant […] cells by concurrent treatment with low dose combretastatin-A4 prodrug and/or L-NAME. Mean tumor volume±SEM is indicated. Significance of differences compared to the PBS control was evaluated by the Student's t test.
Four groups of 6 rats each were inoculated intrahepatically with 1×10^5 wild type colon cancer cells (BN7005-H1D2) on day 0. Drug treatment was initiated on day 7, when the tumor was macroscopically visible as a small nodule, and was repeated 5 days a week. CA4-P was administered i.p. at a dose of 5 mg/kg and L-NAME by gavage at a dose of 48 mg/rat. Vaccination was given twice i.p. on day 10.and 17 with 2×10^6 tumor cells producing IL-18 and IFN-γ, respectively. No drug treatment was given on the day of vaccination and the day after. On day 28 all animals were laparotomized and tumor diameters measured (the longest diameter (a) and the one perpendicular to the first (b) and tumor volume calculated according to the formula 0.4×a×b×b.
Referring to FIG. 6, wild-type (BN7005-H1D2) colon cancer cells were inoculated intrahepatically and combretastatin A4 prodrug treatment began daily on day 7 when the tumors were macroscopically visible. L-NAME, a well known NO inhibitor and effective antitumor agent, was also administered daily. On day 10 and 17 vaccination occurred using BN7005-H1D2 cells transfected with IL-18/IFN-gamma. […] One likely explanation was that both L-NAME and Combretastatin A4 were doing the same thing; i.e. inhibiting the production of proinflammatory cytokines that cause immune suppression.

**Q.** With COc1ccc(/C=C\c2cc(OC)c(OC)c(OC)c2)cc1OP(=O)([O-])[O-].[Na+].[Na+] [CA4P, CA4 phosphate disodium salt] as the compound, how does the Vascular shutdown ([1]; 2 mg/kg) read?
**A.** no vascular shut down could be observed

**Q.** And the Vascular shutdown ([1]; doses below 4 mg/kg, single i.p. injection, 24 h)?
**A.** no significant vascular shutdown

**Q.** What about the “Toxicity to microvessels and immune effect” value ([1]; higher doses, 4-100 mg/kg in the rat) of the same compound?
**A.** toxic to microvessels and immunosuppressive

**Q.** And the “Rats responding to SEA” value ([2]; spleen cells challenged with SEA, 5 of 8 (untreated 13%))?
**A.** 63%

**Q.** And the “Samples responding to tumor antigen challenge” value ([2]; spleen cells stimulated with autologous tumor cells, 7 of 18 (immunization alone 8%))?
**A.** 39%

**Q.** And the “Nitric oxide production into supernatant” value ([3]; Rat#1, Medium)?
**A.** 7 µM

**Q.** And the “Nitric oxide production into supernatant” value ([3]; Rat#1, SEA)?
**A.** 8 µM

**Q.** And the “Nitric oxide production into supernatant” value ([3]; Rat#2, Medium)?
**A.** 6 µM

**Q.** What about the “Nitric oxide production into supernatant” value ([3]; Rat#2, SEA) of the same compound?
**A.** 7 µM

**Q.** And the “Animals with inhibitory effect on NO production” value ([3]; parallel studies (FIG. 3), spleen cells, SEA 0.1 ng/ml, CA4P 0.15 μg/ml)?
**A.** all 4

**Q.** And the “Effect on NO produced” value ([3]; spleen cell cultures exposed to SEA and CA4P, 2 animals studied)?
**A.** significant reduction of NO produced

**Q.** What about the “Proliferative T cell response (CPM thymidine incorporation)” value ([4]; Rat#1, adherent spleen cells (MO) preincubated 3 h with CA4-P 0.15 μg/ml, then L1 nonadherent cells + SEA 0.05 ng/ml, 4 days) of the same compound?
**A.** 124K

**Q.** And the “Animals with stimulating effect on proliferative response” value ([4]; parallel studies (FIG. 3), spleen cells stimulated with wild type tumor cells and SEA 0.1 ng/ml, CA4P 0.15 μg/ml)?
**A.** 3 of 4

**Q.** What about the “Enhancement of in vitro proliferative response of admixed non-adherent cells” value ([4]; preincubation of adherent cells (spleen macrophages) with CA4P) of the same compound?
**A.** 2 fold

**Q.** And the “Concentration in extracellular fluid” value ([5]; 1.5 hours after treatment with 2 mg/kg in vivo, calculated from half-life and extracellular fluid 16.6% of body weight)?
**A.** ≤ 180 ng/mL

**Q.** And the “Concentration in extracellular fluid” value ([5]; 3 hours after treatment with 2 mg/kg in vivo, calculated)?
**A.** less than 1 ng/ml

**Q.** And the Solubility in water [6]?
**A.** readily soluble in water

**Q.** What about the Half-life in vivo [7] of the same compound?
**A.** less than 15 min

**Q.** What about the “Enhancement by combining L-NAME with combretastatin A4 prodrug” value ([8]; CA4-P 5 mg/kg + L-NAME 48 mg/rat + vaccination) of the same compound?
**A.** only a small enhancement

**Q.** And the “Tumor growth compared to the PBS group” value ([8]; CA4P 5 mg/kg i.p. + vaccination with IL-18/IFN-γ producing tumor cells, day 28)?
**A.** inhibited the tumor growth significantly
